# Reference: publication PMC4745082, “A Novel PET Imaging Probe for the Detection and Monitoring of Translocator Protein 18 kDa Expression in Pathological Disorders” (Scientific Reports, 2016)
# Assays:
# [1] = target: CBR; assay: In vitro CBR binding, displacement of [3H]flunitrazepam; design: species or system rat; conditions: for Ki: displacement of [3H]flunitrazepam from rat cerebrocortical samples, mean of three experiments in duplicate
# Experimental: Binding affinity and selectivity to the 18-kDa translocator protein TSPO and to CBR were assessed using in vitro receptor binding assays. These experiments were carried out as described by Denora et al[34].
# [2] = target: T1, TSPO (Rattus norvegicus, UniProt P16257); conditions: ratio of Ki values, higher affinity of CB251
# T1 sequence (P16257 whole entry): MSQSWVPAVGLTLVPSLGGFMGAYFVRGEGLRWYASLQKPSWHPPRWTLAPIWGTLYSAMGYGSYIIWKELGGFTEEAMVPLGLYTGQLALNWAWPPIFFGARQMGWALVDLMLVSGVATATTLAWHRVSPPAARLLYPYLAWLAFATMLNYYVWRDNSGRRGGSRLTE
# [3] = target: T1, TSPO; assay: biochemical
# [4] = target: TSPO; design: method as in PMID 19948230; conditions: literature value ref 25; cited from earlier work
structure (smiles),measurement,setting,value
"CCCN(CCC)C(=O)Cc1c(-c2ccc(OCCF)cc2)nc2c(Cl)cc(Cl)cn12 [CB251, 2-(2-(4-(2-Fluoroethoxy)phenyl)-6,8-dichloroimidazo[1,2-a]pyridin-3-yl)-N,N-dipropylacetamide]",Ki,[1],> 100000 nM
same,binding to CBR,[1]; result in words,below the detection limit
same,TSPO binding affinity relative to PK 11195,[2],5 times
same,TSPO binding affinity relative to PBR28,[2]; PBR28 Ki from ref 25,22 times
same,Ki,[3],0.27 ± 0.09 nM
COc1ccccc1CN(C(C)=O)c1cnccc1Oc1ccccc1 [PBR28],Ki,[4],6.1 ± 6.4 nM
"CCC(C)N(C)C(=O)c1cc2ccccc2c(-c2ccccc2Cl)n1 (centres unmarked) [PK 11195, reference compound]",Ki,[1],> 100000 nM
"CN1C(=O)CN=C(c2ccccc2F)c2cc([N+](=O)[O-])ccc21 [flunitrazepam, reference compound]",Ki,[1],5.11 ± 0.87 nM
